Where “and” joins values, the source holds several entries; their conditions need not be identical. Equal entries are not always repeated.
Assays:
BAR:RXR heterodimer = target: T1, BAR:RXR heterodimer (Homo sapiens, UniProt P19793+Q96RI1); test: Mammalian two hybrid assay detecting recruitment of CoA; type: cell-based
T1 construct: expressed in transfected cells
T1 sequence (Q96RI1 1-486): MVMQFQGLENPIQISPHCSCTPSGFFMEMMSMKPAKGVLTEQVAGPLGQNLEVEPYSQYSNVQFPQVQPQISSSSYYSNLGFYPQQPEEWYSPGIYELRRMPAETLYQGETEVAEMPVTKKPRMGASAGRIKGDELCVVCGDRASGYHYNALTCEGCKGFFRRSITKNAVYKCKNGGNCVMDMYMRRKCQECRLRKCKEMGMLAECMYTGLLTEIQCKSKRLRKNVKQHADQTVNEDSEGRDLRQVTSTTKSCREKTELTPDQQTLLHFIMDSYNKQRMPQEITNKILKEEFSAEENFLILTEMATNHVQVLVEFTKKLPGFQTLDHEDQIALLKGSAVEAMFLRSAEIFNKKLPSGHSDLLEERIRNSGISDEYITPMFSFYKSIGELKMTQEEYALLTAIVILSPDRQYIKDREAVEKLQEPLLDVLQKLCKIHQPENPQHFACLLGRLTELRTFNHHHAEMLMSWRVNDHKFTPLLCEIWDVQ
T1 sequence (P19793 1-462): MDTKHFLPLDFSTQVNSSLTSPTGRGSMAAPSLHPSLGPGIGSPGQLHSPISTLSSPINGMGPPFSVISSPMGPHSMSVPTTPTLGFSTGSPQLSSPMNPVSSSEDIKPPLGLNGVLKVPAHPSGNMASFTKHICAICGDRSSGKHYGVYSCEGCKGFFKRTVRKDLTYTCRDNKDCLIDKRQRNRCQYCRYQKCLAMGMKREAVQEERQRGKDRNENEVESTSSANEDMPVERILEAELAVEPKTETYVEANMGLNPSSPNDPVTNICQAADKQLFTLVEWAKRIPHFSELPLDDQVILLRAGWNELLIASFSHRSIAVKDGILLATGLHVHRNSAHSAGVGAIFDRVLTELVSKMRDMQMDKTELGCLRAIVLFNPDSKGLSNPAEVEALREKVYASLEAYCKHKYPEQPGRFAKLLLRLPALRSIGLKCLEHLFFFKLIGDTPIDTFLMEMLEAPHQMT

HFXR / HRXRop = target: T2, HFXR / HRXRop (Homo sapiens, UniProt P19793+Q96RI1); test: Co-transfection luciferase assay, EcRE × 6 reporter, HFXR + HRXRop;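 also: CV-1 monkey cells transfected with receptor vectors, luciferase reporter and β-galactosidase internal control, exposed to compounds about 40 h, then lysed and luminescence read in a luminometer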
T2 sequence (Q96RI1 1-486): T1 sequence (Q96RI1 1-486)
T2 sequence (P19793 1-462): T1 sequence (P19793 1-462)
Procedure: (§1) CV-1 African Green Monkey cells were grown in Dulbecco's Modified Eagle's medium supplemented with 10% resin-charcoal stripped fetal bovine serum (FBS), 50 U/ml penicillin G and 50 μg/ml streptomycin sulfate (DMEM-FBS) at 37° C. in 5% CO2. One day prior to transfection, cells were plated to 50-80% confluence using phenol red-free DMEM-FBS. Cells were transiently transfected by lipofection as described in Forman et al., 81 Cell 687 (1995). Liposomes (N-[1-(2,3-dioleoyloxy)propyl]-N,N,N-ammonium methyl sulfate, sold by Boehringer Mannheim under the name DOTAP) were formed according to the manufacturer's instructions. The liposomes contained reporter gene constructs (300 ng/10^5 cells); cytomegalovirus driven expression vectors (25 ng/10^5 cells) were added as indicated along with CMX-Bgal (500 ng/10^5 cells) as an internal control. After 2 hours the liposomes were removed and replaced with fresh media. Cells were incubated for approximately 40 hours with phenol red-free DMEM-FBS containing the indicated compounds. After exposure to the specified ligand, the cells were harvested.
(§2) The harvested cells were assayed for the presence of luciferase activity. Cells were lysed in 0.1 M KPO4 (pH 7.8), 1.0% TRITON® X-100, 1.0 mM dithiolthreitol (DTT) and 2 mM ethylenediamine tetracetic acid (EDTA). Luciferase activity was measured by reaction of the cell lysates with luciferin in a reaction buffer comprising: 20 mM tricine, 1.07 mM Mg(CO3)4-Mg(OH)2-5H2O, 2.67 mM MgSO4.7H2O, 0.1 mM EDTA, 0.5 mM Sodium luciferin, 0.15 mg/ml Coenzyme A, 5 mM DTT, and 0.5 mM adenosine triphosphate (ATP). Resulting chemiluminescence was measured in a luminometer. […] All points were assayed in triplicate and varied by less than 15%. Each experiment was repeated three or more times with similar results.
(§3) As shown below, in most cases hRXRop was recombinantly coexpressed with one other of the indicated receptor constructs, so as to permit the formation of hetero-or homodimers containing hRXRop.
(§4) Expression of the luciferase reporter gene product was detected and quantified as described above.

GAL-L-hRXRa = target: T3, GAL-L-hRXRa (Homo sapiens, UniProt P19793); test: Co-transfection luciferase assay, MH100 × 4 reporter, GAL-L-hRXRa alone
T3 sequence (P19793 203-462): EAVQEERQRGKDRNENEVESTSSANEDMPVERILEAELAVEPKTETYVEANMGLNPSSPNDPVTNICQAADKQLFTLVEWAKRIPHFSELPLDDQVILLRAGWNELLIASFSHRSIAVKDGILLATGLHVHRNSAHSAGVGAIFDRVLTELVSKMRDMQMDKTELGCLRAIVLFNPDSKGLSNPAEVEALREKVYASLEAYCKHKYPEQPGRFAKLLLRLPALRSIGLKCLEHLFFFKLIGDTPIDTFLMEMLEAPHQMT
Procedure: as §1, §2, §3, §4

CCCCCCOc1c(\C(C)=C/C=C/C(C)=C/C(=O)O)cc(C(C)C)cc1C(C)C [AGN 34, (2E, 4E, 6Z)-7-(2-Hexyloxy-3,5-diisopropylphenyl)-3-methylocta-2,4,6-trienoic Acid]
recruitment of CoA (BAR:RXR heterodimer): inhibits recruitment | Fold Activation (HFXR / HRXRop; 0.1 μM LG268 + 0.01 μM AGN 34): 2.36 fold | Reporter Activity (HFXR / HRXRop; 0.1 μM LG268 + 0.01 μM AGN 34): 0.76 | Fold Activation (HFXR / HRXRop; 0.1 μM LG268 + 0.1 μM AGN 34): 1.45 fold | Reporter Activity (HFXR / HRXRop; 0.1 μM LG268 + 0.1 μM AGN 34): 0.47 | Fold Activation (HFXR / HRXRop; 0.1 μM LG268 + 1 μM AGN 34): 1.23 fold | Reporter Activity (HFXR / HRXRop; 0.1 μM LG268 + 1 μM AGN 34): 0.40 | Fold Activation (HFXR / HRXRop; 0.1 μM LG268 + 3 μM AGN 34): 1.26 fold | Reporter Activity (HFXR / HRXRop; 0.1 μM LG268 + 3 μM AGN 34): 0.41 | Fold Activation (HFXR / HRXRop; 0.1 μM LG268 + 10 μM AGN 34): 1.22 fold | Reporter Activity (HFXR / HRXRop; 0.1 μM LG268 + 10 μM AGN 34): 0.39 | Fold Activation (HFXR / HRXRop; 10 μM AGN 34 alone): 1.21 fold and 1.35 fold | Reporter Activity (HFXR / HRXRop; 10 μM AGN 34 alone): 0.41 and 0.44 | Fold Activation (HFXR / HRXRop; 50 μM CDCA + 0.01 μM AGN 34): 15.00 fold | Reporter Activity (HFXR / HRXRop; 50 μM CDCA + 0.01 μM AGN 34): 5.14 | Fold Activation (HFXR / HRXRop; 50 μM CDCA + 0.1 μM AGN 34): 11.73 fold | Reporter Activity (HFXR / HRXRop; 50 μM CDCA + 0.1 μM AGN 34): 4.02 | Fold Activation (HFXR / HRXRop; 50 μM CDCA + 1 μM AGN 34): 7.08 fold and 5.51 fold | Reporter Activity (HFXR / HRXRop; 50 μM CDCA + 1 μM AGN 34): 2.42 | Fold Activation (HFXR / HRXRop; 50 μM CDCA + 3 μM AGN 34): 5.78 fold | Reporter Activity (HFXR / HRXRop; 50 μM CDCA + 3 μM AGN 34): 1.98 | Fold Activation (HFXR / HRXRop; 50 μM CDCA + 10 μM AGN 34): 6.58 fold | Reporter Activity (HFXR / HRXRop; 50 μM CDCA + 10 μM AGN 34): 2.25 | Fold Activation (GAL-L-hRXRa; 0.1 μM LG268 + 0.01 μM AGN 34): 33.56 fold | Reporter Activity (GAL-L-hRXRa; 0.1 μM LG268 + 0.01 μM AGN 34): 11.17 | Fold Activation (GAL-L-hRXRa; 0.1 μM LG268 + 0.1 μM AGN 34): 8.61 fold | Reporter Activity (GAL-L-hRXRa; 0.1 μM LG268 + 0.1 μM AGN 34): 2.86 | Fold Activation (GAL-L-hRXRa; 0.1 μM LG268 + 1 μM AGN 34): 1.07 fold | Reporter Activity (GAL-L-hRXRa; 0.1 μM LG268 + 1 μM AGN 34): 0.36 | Fold Activation (GAL-L-hRXRa; 0.1 μM LG268 + 3 μM AGN 34): 1.05 fold | Reporter Activity (GAL-L-hRXRa; 0.1 μM LG268 + 3 μM AGN 34): 0.35 | Fold Activation (GAL-L-hRXRa; 0.1 μM LG268 + 10 μM AGN 34): 0.98 fold | Reporter Activity (GAL-L-hRXRa; 0.1 μM LG268 + 10 μM AGN 34): 0.33 | Fold Activation (GAL-L-hRXRa; 10 μM AGN 34 alone): 1.14 fold and 1.12 fold | Reporter Activity (GAL-L-hRXRa; 10 μM AGN 34 alone): 0.38 and 0.37 | Fold Activation (GAL-L-hRXRa; 50 μM CDCA + 0.01 μM AGN 34): 1.03 fold | Reporter Activity (GAL-L-hRXRa; 50 μM CDCA + 0.01 μM AGN 34): 0.34 | Fold Activation (GAL-L-hRXRa; 50 μM CDCA + 0.1 μM AGN 34): 0.92 fold | Reporter Activity (GAL-L-hRXRa; 50 μM CDCA + 0.1 μM AGN 34): 0.31 | Reporter Activity (GAL-L-hRXRa; 50 μM CDCA + 1 μM AGN 34): 0.37 | Fold Activation (GAL-L-hRXRa; 50 μM CDCA + 3 μM AGN 34): 1.05 fold | Reporter Activity (GAL-L-hRXRa; 50 μM CDCA + 3 μM AGN 34): 0.35 | Fold Activation (GAL-L-hRXRa; 50 μM CDCA + 10 μM AGN 34): 1.10 fold | Reporter Activity (GAL-L-hRXRa; 50 μM CDCA + 10 μM AGN 34): 0.37

Reference: patent US20030144360A1, “Composition and method for modulating BAR/FXR receptor activity” (Allergan Sales, Inc., priority 2001, published 2003)
